Where “and” joins values, the source holds several entries; their conditions need not be identical. Equal values may be shown once.
Assays:
B16 Melanoma = assay: Growth inhibition in suspension cell culture, B16 Melanoma; type: cell-based; conditions: Mus musculus, 72 hours, cell count 50 percent of untreated control, read-out: ID50 (the source's name)
Method: (§1) In further tests, growth-inhibitory effects of COMPOUND 1 and COMPOUND 2 were measured against 3 mouse tumor lines in suspension cell culture. Cell cultures were initiated at a density of 50,000 cells/ml in medium RPMI 1630 supplemented with 10 percent fetal calf serum. Composition of this culture medium and details of the culture procedure followed the published method (G. E. Moore, A. A. Sandberg and K. Ulrich, Suspension Cell Culture and in vivo and in-vitro chromosome constitution of mouse leukemia L1210, Journal of the National Cancer Institute 36, 405-415, 1966). Cultures were maintained at 37 degrees in stationary suspension culture under a 95 percent air+5 percent CO2 atmosphere. Test compounds were added to treated cultures at the time of initiation, and were present continually. After 72 hours, 40-fold dilutions of drug-treated and untreated control cultures were prepared in 0.9 percent NACl solution, and cells were counted on an electronic particle counter. The growth-inhibitory effects are expressed as ID50 values, namely, test compound inhibitory dosages or concentrations required to decrease cell count in treated cultures to 50 percent of the cell count of untreated control cultures.

Lewis lung carcinoma = assay: Antitumor activity against Lewis lung carcinoma, Example 14 (Table IV); type: in vivo, B6D 2F 1 male mice; parameters: Treated Group Survival Time: unit not given here; conditions: for Treated Group Survival Time: mean, control 19.0
Method: As illustrative examples of the antitumor use of COMPOUNDS 1 and 2, Examples 12 through 14, below, are given. […] The tests utilized in these illustrative examples were conducted by the Developmental Therapeutics Program, Division of Cancer Treatment, National Cancer Institute. The tests were supervised by this agency utilizing their standard protocols and procedures. All tests conformed to these protocols and all tests were evaluated under the criteria defined by these protocols. The following representative examples illustrate confirmed activity of the illustrative compounds of the invention against screening tumor systems of the National Cancer Institute.
For purposes of the following examples, the abbreviation IP stands for intraperitoneal and IV stands for intravenous. The mean and median survival times are calculated in instruction 14 (revised 6/78) of the Screening Data Summary, Developmental Therapeutics Program, Division of Cancer Treatment, National Cancer Institute. The contents of this Screening Data Summary including appropriate revisions are herein incorporated by reference.
In the illustrated examples below, the vehicle used as carrier for the drug was injected (minus any drug therein) into the control animals at the same level of use of the vehicle in the drug treated animals in order to eliminate any vehicle effect of the tests.
In both the control group and the drug treated group in Example 12, the animals were inoculated on day zero with a homogenate of 10^6 seed cells of Lewis lung carcinoma. For Example 12, drug treatment was started on day one and COMPOUND 1 given once daily for nine days. Day five was utilized as the cut-off date for deaths attributable to toxicity of the drug. […] Efficacy of treatment was determined by comparing median survival time of the control animals and is expressed as percentage increase of treated animals/control animals (T/C).
COMPOUND 2, 2-(5-phosphono-β-D-ribofuranosyl)selenazole-4-carboxamide was screened for Lewis lung carcinoma activity in a manner similar to that described in Example 12. In this example, B6D 2F 1 male mice were challenged with Lewis lung carcinoma. The mean survival time of the test animals was compared to that of appropriate control animals. […] At 13 mg/kg the treated, surviving mice have a T/C of 315 percent and 4 out of 10 cures were achieved.

3 mouse tumor lines = assay: Growth inhibition in suspension cell culture, representative tumor lines; type: cell-based
Method: as §1

L-1210 = assay: Growth inhibition in suspension cell culture, L-1210; type: cell-based; conditions: Mus musculus, L1210, 72 hours, cell count 50 percent of untreated control, read-out: ID50 (the source's name)
Method: as §1

P388 = assay: Growth inhibition in suspension cell culture, P388; type: cell-based; conditions: Mus musculus, 72 hours, cell count 50 percent of untreated control, read-out: ID50 (the source's name)
Method: as §1

**Q.** With `NC(=O)c1c[se]c([C@@H]2O[C@H](COP(=O)(O)O)[C@@H](O)[C@H]2O)n1` [COMPOUND 2, 2-β-D-Ribofuranosylselenazole-4-Carboxamide 5'-phosphate] as the compound, how does the IC50 (B16 Melanoma) read?
**A.** 7500 nM

**Q.** And the Cures (Lewis lung carcinoma; 3 mg/kg)?
**A.** 0/10

**Q.** What about the “Percent Treated Animals/Control Animals (T/C)” value (Lewis lung carcinoma; 3 mg/kg) of the same compound?
**A.** 109%

**Q.** And the “Treated Group Survival Time” value (Lewis lung carcinoma; 3 mg/kg)?
**A.** 20.8

**Q.** What about the Cures (Lewis lung carcinoma; 6 mg/kg) of the same compound?
**A.** 0/10

**Q.** What about the “Percent Treated Animals/Control Animals (T/C)” value (Lewis lung carcinoma; 6 mg/kg) of the same compound?
**A.** 115%

**Q.** What about the “Treated Group Survival Time” value (Lewis lung carcinoma; 6 mg/kg) of the same compound?
**A.** 22.0

**Q.** And the Cures (Lewis lung carcinoma; 9 mg/kg)?
**A.** 1/10

**Q.** What about the “Treated Group Survival Time” value (Lewis lung carcinoma; 9 mg/kg) of the same compound?
**A.** 12.5

**Q.** What about the Cures (Lewis lung carcinoma; 13 mg/kg) of the same compound?
**A.** 4 out of 10 and 4/10

**Q.** What about the “Percent Treated Animals/Control Animals (T/C)” value (Lewis lung carcinoma; 13 mg/kg) of the same compound?
**A.** 315%

**Q.** And the “Treated Group Survival Time” value (Lewis lung carcinoma; 13 mg/kg)?
**A.** 60.0

**Q.** And the Cures (Lewis lung carcinoma; 20 mg/kg)?
**A.** 2/10

**Q.** And the “Treated Group Survival Time” value (Lewis lung carcinoma; 20 mg/kg)?
**A.** 12.0

**Q.** And the Cures (Lewis lung carcinoma; 33 mg/kg)?
**A.** 3/10

**Q.** And the “Treated Group Survival Time” value (Lewis lung carcinoma; 33 mg/kg)?
**A.** 12.5

**Q.** What about the Cures (Lewis lung carcinoma; 50 mg/kg) of the same compound?
**A.** 3/10

**Q.** What about the “Treated Group Survival Time” value (Lewis lung carcinoma; 50 mg/kg) of the same compound?
**A.** 12.5

**Q.** And the Cures (Lewis lung carcinoma; 75 mg/kg)?
**A.** 1/10

**Q.** What about the “Treated Group Survival Time” value (Lewis lung carcinoma; 75 mg/kg) of the same compound?
**A.** 15.5

**Q.** And the “antitumor activity in words” value (Lewis lung carcinoma; mean survival time versus control)?
**A.** effective antitumor agent

**Q.** And the “growth inhibition compared with COMPOUND 1, in words” value (3 mouse tumor lines; cell culture)?
**A.** appears to be superior to COMPOUND 1

**Q.** What about the “growth inhibition in words” value (3 mouse tumor lines; representative tumor lines in cell culture) of the same compound?
**A.** inhibit growth in cell culture for representative tumor lines at extremely low dosage

**Q.** What about the IC50 (L-1210) of the same compound?
**A.** 58 nM

**Q.** And the IC50 (P388)?
**A.** 66 nM
